Laboratory results taken from paper PMC6627486, “Ipomoeassin F Binds Sec61α to Inhibit Protein Translocation” (Journal of the American Chemical Society, 2019).
Read-outs that look alike come from different tables or passages of the source.

Tests used:
[1] = AlamarBlue cytotoxicity assay, MCF-10A; assay type: cell-based, human; settings: human
Procedure: AlamarBlue Cytotoxicity Assay
MDA-MB-231, MCF-10A and HCT116. Viable cells were counted with a hemocytometer immediately before each experiment . Experiments were done in triplicate. First, 100 μL of MDA-MB-231 cells or MCF-10A cells at the density of 50,000 cells/mL was seeded in a 96-well plate (5,000 cells/well) and then incubated at 37 °C and 5% CO2 for 24 h. The compounds were dissolved in DMSO (dimethyl sulfoxide) to make drug stocks (10 mM). The stock solutions were diluted with the complete DMEM high glucose culture medium to make a series of gradient fresh working solutions right before each test. Subsequently, the cells were treated with 100 μL of the freshly made gradient working solution in a total volume of 200 μL/well for 72 h. After that, the media were discarded and 200 μL of the fresh complete medium containing 10% of AlamarBlue (resazurin) stock solution was added to each well. The plate was then incubated at 37 °C and 5% CO2 for another 3 h. Emission of each well at 620 nm was detected by a microplate reader (BioTek Synergy H1) at excitation 580 nm. […]
Microplate Reader. The percentage of viability compared to the negative control (DMSO-treated cells) […]
was determined. […]

[2] = test system: MCF7; assay: MTT cytotoxicity assay, MCF7; assay type: cell-based, human; settings: Homo sapiens, MCF7, 72 h, read-out: Cytotoxicity (IC50)
Procedure: Two human breast cancer cell lines (MDA-MB-231 and MCF7) and one human breast non-tumorigenic epithelial cell line (MCF-10A) were maintained in a DMEM high glucose culture medium supplemented with 10% fetal bovine serum (FBS) and 2 mM L-glutamine. The cells were grown in a humidified atmosphere of 5% CO2 and 95% air at 37 °C . The culture medi um w as changed every 2–4 days depending on cell density. Cell cultures were passaged once a week using 0.125% trypsin-EDTA to detach the cells from culture flasks/dishes.
The human colorectal cancer cell line HCT116 was maintained in McCoy’s 5A (modified) medium supplemented with 10% fetal bovine serum (FBS). The human embryonic kidney (HEK293T and HEK293 FRT TRex) cell line was maintained in DMEM high glucose culture medium supplemented with 10% fetal bovine serum (FBS).
HepG2 cells were cultured in DMEM supplemented with 10% fetal bovine serum and 2 mM L-glutamine at 37°C under 5% CO2.
Viable cells were counted with a hemocytometer immediately before each experiment. Experiments were done in triplicate. First, 100 μL of MCF7 cells at the density of 50,000 cells/mL were seeded in a 96-well plate (5,000 cells/well), which was incubated at 37 °C and 5% CO2 atmosphere for 24 h. The compounds were dissolved in DMSO (dimethyl sulfoxide) to make drug stocks (10 mM). The stock solutions were diluted with the complete DMEM high glucose culture medium to make a series of gradient fresh working solutions right before each test. Subsequently, the cells were treated with 100 μL of the freshly made gradient working solution in a total volume of 200 μL/well for 72 h. After that, the media were discarded and 200 μL of the fresh complete medium containing 10% of MTT stock solution (5 mg/mL) was added to each well. The plate was then incubated at 37 °C and 5% CO2 for 3 h. Next, 180 μL of the medium was discarded from each well , and 180 μL of DMSO was added to each well to dissol ve formazan crystals. Absorbance of formazan was detected by a microplate reader (BioTek Synergy H1) at 570 nm with 650 nm as the reference wavelength. The percentage of viability compared to the negative control (DMSO-treated cells) was determined . GraphPad Prism 6 software was used to make a plot of %

[3] = test system: HEK T86M; assay: Alamar Blue viability, HEK293 expressing Sec61α T86M; assay type: cell-based, human; settings: read-out: cell viability IC50
Procedure: (§1) AlamarBlue Cytotoxicity Assay […]
HCT116 and HEK293T. Viable cells were counted using an automated cell counter (BioRad TC20) before each experiment. Experiments were performed either in quadruplicate or duplicate sets. First 100µ l of HCT116 or HEK293T cells at a density of 25,000 cells/m l was seeded in black wall, clear bottom, 96-well plates (2500 cells/well) (Viewplate-96 Perkin Elmer). HEK293 FRT Trex cells were seeded in complete medium supplemented to 1 μg/ml Doxycycline to induce expression of Sec61a constructs. Cells were then incubated at 37 °C and 5% CO2 for 24 h. The compounds were dissolved in DMSO to make drug stocks (10 mM). The stock solutions were diluted with the complete DMEM or McCoy’s 5A culture media supplemented with DMSO to make a series of gradient fresh working solutions at equal DMSO percentage immediately prior to each test. Subsequently, the cells were treated with 25 μl of the freshly made gradient in a total volume of 125 μl/well for 72 h. After that, the media were supplemented with 10% of AlamarBlue (resazurin) stock solution. The plate was then incubated at 37 °C and 5% CO2 for another 4 h. Emission of each well at 620 nm was detected by a microplate reader (Perkin Elmer EnSpire) at excitation 580 nm. The percentage of viability compared to the negative control (DMSO -treated cells) was determined. […]

[4] = test system: HEK R66I; assay: Alamar Blue viability, HEK293 expressing Sec61α R66I; assay type: cell-based, human; settings: read-out: cell viability IC50
Procedure: as §1
Compounds were diluted from a DMSO stock into culture medium as described above. Cells were treated for 96 h, then viability measured with AlamarBlue, detected using the conditions described but with a BMG Fluostar Optima Microplate Reader. The percentage of viability compared to the negative control (DMSO-treated cells) was determined. GraphPad Prism 6 software was used to make a plot of % viability versus sample […]
HCT116 and HEK293T. Viable cells were counted using an automated cell counter (BioRad TC20) before each experiment. Experiments were performed either in quadruplicate or duplicate sets. First 100µ l of HCT116 or HEK293T cells at a density of 25,000 cells/m l was seeded in black wall, clear bottom, 96-well plates (2500 cells/well) (Viewplate-96 Perkin Elmer). HEK293 FRT Trex cells were seeded in complete medium supplemented to 1 μg/ml Doxycycline to induce expression of Sec61a constructs. Cells were then incubated at 37 °C and 5% CO2 for 24 h. The compounds were dissolved in DMSO to make drug stocks (10 mM). […] Emission of each well at 620 nm was detected by a microplate reader (Perkin Elmer EnSpire) at excitation 580 nm. The percentage of viability compared to the negative control (DMSO -treated cells) was determined. […]

[5] = test system: TNF production by RAW264.7 cells; assay: TNF production washout assay in LPS-stimulated RAW264.7 cells; assay type: cell-based; settings: 250 nM ipomoeassin F, 125 ng/mL mycolactone; for TNF production after 24 h washout: 1 h incubation, washed, 24 h recovery, then LPS 4 h; for TNF production, direct assay: 1 h preincubation, then 100 ng/mL LPS 4 h
Procedure: The reversibility of the inhibition of secreted protein production by ipomoeassin F was determined by following the production of TNF in RAW264.7 cells as described before.22 Briefly, RAW264.7 cells were maintained at 37 °C and 5% CO2 in high glucose DMEM (Merck), supplemented with 10% heat-inactivated FBS (GIBCO). Cells were plated into 24 well plates at a concentration of 1 x 10^5/ml 24 hour prior to assay, then incubated for 1 hour in the presence or absence of 125 ng/ml mycolactone, 250 nM Ipomoeassin F or DMSO carrier. Cells were either stimulated directly with 100 ng/ml TLR-grade LPS (Enzo) or washed 3 times with medium and incubated 24 hour, then stimulated with LPS. In each case, cells were incubated with LPS for 4 hour then the supernatants were removed. The concentration of TNF in supernatants was quantified by ELISA (eBioscience).

| Compound | IC50 at 72 h [1] [nM] | IC50 [2] [nM] | IC50 ([3]; Homo sapiens, HEK293, 72 h) [nM] | IC50 ([4]; Homo sapiens, HEK293, 72 h) [nM] | TNF production after 24 h washout [5] | TNF production, direct assay [5] | IC50 ([1]; 72 h) [nM] | IC50 ([2]; MTT) [nM] | IC50 ([3]; 72 h) [nM] | IC50 ([4]; 72 h) [nM] |
| --- | --- | --- | --- | --- | --- | --- | --- | --- | --- | --- |
| C/C=C(\C)C(=O)O[C@@H]1[C@@H](O)[C@@H]2O[C@H]3[C@H](O[C@@H](CCCCC)CCCCCCC(=O)CCC(=O)OC[C@@H](O2)[C@H]1OC(=O)/C=C/c1ccccc1)O[C@H](C)[C@H](OC(C)=O)[C@@H]3O [ipomoeassin F] | 5.3 | 36.4 | 13.5 ± 0.6 | > 10000 | restored, albeit at a reduced level | similarly blocked TNF production |  |  |  |  |
| C/C=C(\C)C(=O)O[C@H]1[C@H](OC(=O)/C=C/c2ccc(OCc3cn(CCOCCOCCOCCNC(=O)CCCC[C@@H]4SC[C@@H]5NC(=O)N[C@@H]54)nn3)cc2)[C@@H](O)[C@@H]2O[C@H]3[C@H](O[C@@H](CCCCC)CCCCCCC(=O)CCC(=O)OC[C@H]1O2)O[C@H](C)[C@H](OC(C)=O)[C@@H]3O [compound 5] |  |  |  |  |  |  | 21.7 | 187 |  |  |
| CC(=C\C=C\C(C)=C\[C@H](O)[C@@H](O)C[C@H](C)O)/C=C(C)/C=C/C(=O)O[C@H]1CCCC(=O)O[C@@H]([C@@H](C)C/C(C)=C/[C@@H](C)[C@H](O)C[C@@H](C)O)C/C=C(\C)C[C@@H]1C [mycolactone, reference compound] |  |  |  |  | not to be restored | completely block TNF production |  |  | 2470 | 4620 |
